{"source": "patent US5997501A", "about": "“Intradermal drug delivery device” (Elan Corporation, plc, priority 1993, dated 1999)", "key": {"serum calcium": {"system": "serum calcium", "test": "Serum calcium concentration in rabbits after intradermal device infusion of salmon calcitonin (Example 2, FIG. 20)", "assay_type": "in vivo, rabbit", "details": "for mean serum calcium concentration, % of control value: 1.0 mg/ml at 0.1 ml/hour for 6 hours, four rabbits", "procedure": "A device according to the present invention containing 0.6 ml of a solution of salmon calcitonin (1.0 mg/ml) was affixed to each of four rabbits. This solution was infused at the rate of 0.1 ml/hour for 6 hours. Serum calcium concentrations were measured via an ear vein at 0, 0.5, 1, 2, 3, 4, 5 and 6 hours following activation of the device, at which point the device was removed."}, "[1]": {"test": "Delivery of calcitonin from device compared with conventional subcutaneous injection (plasma calcitonin by EIA, plasma calcium by photometric analysis)", "assay_type": "in vivo, New Zealand white rabbits", "from_the_text": "(§1) Devices manufactured according to the present invention were used to study the delivery of insulin, heparin and salmon calcitonin to New Zealand white rabbits weighing between 2.5 kg and 3.5 kg. Hair was removed from the dorsal surface of the animal using an electric clipper twenty-fours prior to application of the device. Arterial blood samples were withdrawn for determination of plasma concentration of drug through an indwelling cannula placed in the ear artery.\nTo compare delivery of calcitonin using devices according to the present invention to conventional delivery, 40 IU calcitonin was delivered to a rabbit over 2 hours from a device according to the present invention and 20 IU calcitonin was delivered by a conventional single subcutaneous injection. In a further study, calcitonin was delivered at a rate of 25 IU/h and 100 IU/h for a period of 6 hours from devices according to the present invention. Plasma concentrations of calcium were measured using a photometric analysis while calcitonin concentrations were measured by an EIA method."}, "[2]": {"assay_type": "in vivo, New Zealand white rabbits", "details": "1000 IU/h for 5 hours from device", "from_the_text": "as §1\nDelivery of heparin from devices according to the present invention was studied by administering heparin at a rate of 1000 IU/h for 5 hours. Plasma heparing was assayed using an EIA method."}, "blood glucose [3]": {"system": "blood glucose", "test": "Blood glucose concentration in rabbits after intradermal device infusion of insulin (Example 1, FIG. 19)", "assay_type": "in vivo, rabbit", "details": "for mean blood glucose concentration: control value 6.25 mmol/l", "procedure": "A device according to the present invention containing 0.6 ml of a solution of insulin (100 I.U./ml) was affixed to each of two rabbits and the devices were switched on. The insulin solution was infused at a rate of 0.1 ml/hour for two hours. […] At one hour, mean blood glucose concentration had fallen from a control value of 6.25 mmol/l to 3.2 mmol/l. This value stayed relatively constant at 1.5 hours following activation (2.65 mmol/l) and at 2 hours (2.5 mmol/l), at which time the devices were removed."}, "[4]": {"test": "Plasma insulin concentration (RIA) in rabbits during device delivery of insulin (Example 3)", "assay_type": "in vivo, New Zealand white rabbits", "details": "5 IU/h, time=3h", "from_the_text": "as §1\n(§2) Diabetes was induced in test rabbits by administration intravenously of a 150 mg/kg dose of alloxan (monohydrate) to fasted rabbits. The rabbits were provided with a dextrose solution for three days after alloxan administration and after this time normal diet was resumed. Test animals were maintained healthy with a commercial insulin preparation prior to the study. The devices were attached to the rabbits and delivery of insulin at a rate of 5 IU/h was commenced to normoglycaemic animals (for 3 hours) and to diabetic animals (for 3.25 hours). Whole blood glucose concentrations were measured using an Ames glucometer and plasma insulin concentration were measured using a RIA method."}, "blood glucose [5]": {"system": "blood glucose", "test": "Whole blood glucose concentration (Ames glucometer) in rabbits during device delivery of insulin (Example 3)", "assay_type": "in vivo, New Zealand white rabbits", "details": "normal and diabetic animals; 5 IU/h", "from_the_text": "as §1, §2"}}, "data": [{"substance": "salmon calcitonin", "values": [{"measurement": "mean calcium concentrations, course", "setting": "serum calcium; 0 to 6 hours, 0.1 ml/hour", "result": "fell steadily throughout the period of application"}, {"measurement": "mean serum calcium concentration, % of control value", "setting": "serum calcium; 5 hours following activation", "result": 62.5, "unit": "%"}, {"measurement": "mean serum calcium concentration, % of control value", "setting": "serum calcium; 6 hours following activation", "result": 66.6, "unit": "%"}, {"measurement": "delivery of calcitonin, dose proportionality", "setting": "[1]; 25 IU/h and 100 IU/h for 6 hours from devices", "result": "dose proportional"}, {"measurement": "delivery of calcitonin compared with conventional routes", "setting": "[1]; 40 IU over 2 hours from device vs 20 IU single subcutaneous injection", "result": "comparable to that from conventional routes"}]}, {"substance": "heparin", "values": [{"measurement": "amounts of heparin delivered", "setting": "[2]", "result": "significant anticoagulant amounts"}]}, {"substance": "insulin: solution of insulin (100 I.U./ml)", "values": [{"measurement": "mean blood glucose concentration", "setting": "blood glucose [3]; 1 hour following activation, 100 I.U./ml at 0.1 ml/hour, two rabbits", "result": 3.2, "unit": "mmol/L"}, {"measurement": "mean blood glucose concentration", "setting": "blood glucose [3]; 1.5 hours following activation, 100 I.U./ml at 0.1 ml/hour", "result": 2.65, "unit": "mmol/L"}, {"measurement": "mean blood glucose concentration", "setting": "blood glucose [3]; 2 hours following activation (devices removed), 100 I.U./ml at 0.1 ml/hour", "result": 2.5, "unit": "mmol/L"}, {"measurement": "mean blood glucose, course after device removal", "setting": "blood glucose [3]; later than one hour after device removal", "result": "continued to rise with time"}, {"measurement": "mean blood glucose concentration", "setting": "blood glucose [3]; one hour after device removal", "result": 3.7, "unit": "mmol/L"}, {"measurement": "plasma insulin concentration", "setting": "[4]; diabetic (alloxan) rabbits, approximately 10 fmol/ml at time 0", "result": "approximately 240 fmol/ml"}, {"measurement": "plasma insulin concentration", "setting": "[4]; normal (normoglycaemic) rabbits, approximately 25 fmol/ml at time 0", "result": "approximately 275 fmol/ml"}, {"measurement": "blood glucose concentration, change", "setting": "blood glucose [5]", "result": "corresponding decrease in blood glucose concentration was observed for both normal and diabetic animals"}]}]}
